Results: US9403840B2, “(Poly) aminoacetamide derivatives of epipodophyllotoxin their process of preparation and their applications in therapeutics as anticancer agents” (PIERRE FABRE MEDICAMENT, priority 2004, dated 2016)
In brackets after ≈: the same amount, converted by molar mass. Several values for one entry are separate records, joined by “and”; a condition that tells them apart may be missing. Equal entries are not always repeated. Structures can show the parent of a compound that is named as a salt.

Experiments:
DNA in A549 cells = experiment: Comets test for detection of breakages of the DNA in cellulo; type: cell-based, human; conditions: 1 hour with 10 μM compound
Method: b) Test for Detection of Breakages of the DNA in Cellulo:
The comets test is used. The breakages of the DNA are detected in the A549 cells after incubating for 1 hour with 10 μM of each of the test compounds. […] For each compound, twenty-five cells are analysed and the mean Tail Moment (TM) is calculated using Komet software (Kinetic Imaging, UK).

[1] = Solubility in water of the hydrochloride; type: physicochemical; conditions: water-soluble hydrochloride
Description: The compounds of the present invention have a solubility in water which makes possible a form of administration by infusion, by injection or by the oral route. They are provided in the form of their water-soluble hydrochloride, the solubility values of which are collated in Table II.

P388 murine leukaemia = experiment: P388 experimental tumour model (survival); type: in vivo, mouse; conditions: CD2F1 mice, P388 i.v. day 0, single intraperitoneal injection day 1; optimum dose (mg/kg) in brackets
Method: (§1) The model used is P388 murine leukaemia (Tumor Models in Cancer Research., Teicher, B. A. ed., Humana Press Inc., Totowa, N.J., pp. 23-40, 2002), which is maintained by successive intraperitoneal transplantations in DBA/2 mice (DBA/2JIco, Charles River), as was described in prior art documents (Classic in vivo cancer models: Three examples of mouse models used in experimental therapeutics. Current Protocols in Pharmacology Unit 5.24: 5.24.1-5.24.16, 2001).
The experiment is carried out according to a protocol already described in prior art documents (Cancer Chemother. Pharmacol., 1998, 41, 437-447). This consists in implanting 10^6 cells of P388 leukaemia per mouse into C2DF1 hybrid mice (CD2F1/CrlBR, Charles River, St Aubin-les-Elbeuf, France) intravenously on day zero. After randomizing the animals in the treatment and control cages, the compounds to be evaluated are administered in a single injection intraperitoneally the day after the tumour graft, on day 1. The animals are subsequently monitored every day, weighed twice weekly and any clinical reaction is recorded. The survival is the parameter for evaluation of the antitumour activity. The increase in survival is defined by the T/Csurvival ratio (%), corresponding to: (Median of survival of the treated group/Median of survival of the control group)×100. A T/Csurvival ratio is calculated for each dose administered and the greatest value obtained represents the maximum increase in survival achieved (maximum activity), which is defined by the optimum T/Csurvival ratio. The results are illustrated in Table II, in which the optimum T/Csurvival values appear. […] Specifically, according to the criteria of the NCI (National Cancer Institute), a T/Csurvival value is regarded as significant if it is at least greater than 120% (Semin. Oncol., 1981, 8, 349-361). The relative loss in body weight of the animals, associated with the optimum activity of the compounds, is much less than the toxicity threshold, according to the criteria of the NCI (Ann. Oncol., 1994, 5, 415-422).

[2] = test system: cells of the A549 human line (non-small-cell lung cancer); experiment: Cytotoxicity test: inhibition of growth of A549 cells (ATP-Lite luminescence); type: cell-based; conditions: 48 hours incubation
Method: The test used is the inhibition of growth of cells of the A549 human line (non-small-cell lung cancer):
The A549 tumour cells are seeded in a 96-well plate in RPMI 1640 medium without phenol red (Seromed) to which 5% of foetal calf serum is added (100 μl/well, 125×10^4 cells/ml). After incubating at 37° C. for 24 hours in an incubator comprising 5% CO2, the medium is replaced with that comprising the test compound, after which the plates are incubated for an additional 48 hours. Cell survival is evaluated by measuring the luminescence after release of ATP into the medium using the cell lysis, luciferase and luciferin solutions present in the ATP-Lite-M™ kit as is recommended by the manufacturer (Packard, Rungis, France). Each experimental condition was tested at least three times as six identical copies. The results, expressed as IC50 (M), are collated in Table I and show the cytotoxicity of the compounds.

B16 melanoma = experiment: B16 experimental tumour model (tumour volume); type: in vivo, mouse; conditions: C57BL/6 mice, s.c. B16, intraperitoneal on days 3, 5, 7 and 10; dose (mg/kg) in brackets
Method: as §1, with “the B16 melanoma” for “P388 murine leukaemia”, “subcutaneous” for “intraperitoneal”, “C57BL/6” for “DBA/2”, “(C57BL/6 NCrlBR,” for “(DBA/2JIco,”, “River, St Aubin-les-Elbeuf, France),” for “River),”, “above” for “in prior art documents”
The experiment is carried out according to a protocol already described above. B16 tumour tissue is ground and homogenized in a 0.9% sterile sodium chloride solution using a Dounce homogenizer and then C57BLJ6 mice are inoculated subcutaneously into the flank with 0.5 ml of this 1 g/ml preparation on day zero. After randomizing the animals in the treatment and control cages, the compounds to be evaluated are administered intraperitoneally on days 3, 5, 7 and 10 after the grafting of the tumour. The animals are subsequently monitored every day, weighed twice weekly and any clinical reaction is recorded. The size of the tumour is measured three times weekly during the experiment. The tumour volume is calculated and the activity of the compounds on the size of the tumour is defined by the T/Cvolume ratio (%), corresponding to (Median tumour volume of the treated group/Median tumour volume of the control group)×100. […]

[3] = test system: MX-1 human mammary carcinoma; experiment: MX-1 experimental tumour model (tumour volume); type: in vivo, mouse
Description: The model used is a human mammary carcinoma (Developmental Therapeutics Program, Division of Cancer Treatment, National Cancer Institute, In vivo Cancer Models 1976-1982. NIH Publication No. 84 2635, Washington D.C.: United States Government Printing Office, 1984), which is maintained by successive subcutaneous transplantations in Swiss Nude mice (Ico: Swiss-nu/nu, Iffa Credo, L'Arbresle, France), as was described above (Classic in vivo cancer models: Three examples of mouse models used in experimental therapeutics. Current Protocols in Pharmacology Unit 5.24: 5.24.1-5.24.16, 2001).
The experiment is carried out according to a protocol already described above (Cancer Chemother. Pharmacol., 1998, 41, 437-447). […] After randomizing the animals in their treatment and control cages, the compounds to be evaluated are administered intraperitoneally on day 7, 9, 11, 14, 16 and 18 after the grafting of the tumour. The animals are subsequently monitored every day, weighed twice weekly and any clinical reaction is recorded. The size of the tumour is measured three times weekly during the experiment. The tumour volume is calculated and the activity of the compounds on the size of the tumour is defined by the T/Cvolume ratio (%), corresponding to (Median tumour volume of the treated group/Median tumour volume of the control group)×100.

Row | melting point | Compound | TM (mean Tail Moment with respect to the TM of etoposide, taken to be unity) (DNA in A549 cells) | P388 Model Optimum T/Csurvival (%) (P388 murine leukaemia) | IC50 ([2]; Homo sapiens) | further results
1 | 269 to 270 °C | COc1cc(C2c3cc4c(cc3C(NC(=O)CN3CCCCC3)C3COC(=O)C23)OCO4)cc(OC)c1O (stereo not drawn) (as salt: hydrochloride) | – | – | – | –
2 | 236 °C | COc1cc(C2c3cc4c(cc3C(NC(=O)CNCCN)C3COC(=O)C23)OCO4)cc(OC)c1O (stereo not drawn) (as salt: hydrochloride) | – | – | – | –
3 | 219 °C | COc1cc(C2c3cc4c(cc3C(NC(=O)CNCCCN)C3COC(=O)C23)OCO4)cc(OC)c1O (stereo not drawn) (as salt: hydrochloride) | – | – | – | –
4 | 209 °C | COc1cc(C2c3cc4c(cc3C(NC(=O)CNCCCNCCCCNCCCN)C3COC(=O)C23)OCO4)cc(OC)c1OC (stereo not drawn) (as salt: hydrochloride) | – | – | – | –
5 | 199 °C | COc1cc(C2c3cc4c(cc3C(NC(=O)CNCCCCNCCCN)C3COC(=O)C23)OCO4)cc(OC)c1O (stereo not drawn) (as salt: hydrochloride) | – | – | – | –
6 | 255 °C | COc1cc(C2c3cc4c(cc3C(NC(=O)CNCCCNCCCCN)C3COC(=O)C23)OCO4)cc(OC)c1O (stereo not drawn) (as salt: hydrochloride) [Example 31, 2-[3-(4-aminobutylamino)propylamino]-N-[9-(4-hydroxy-3,5-dimethoxyphenyl)-8-oxo-5,5a,6,8,8a,9-hexahydrofuro[3′,4′:6,7]naphtho[2,3-d][1,3]dioxol-5-yl]acetamide] | – | – | – | –
7 | – | COc1cc(C2c3cc4c(cc3C(NC(=O)CNCCN(C)C)C3COC(=O)C23)OCO4)cc(OC)c1O (stereo not drawn) [Example 9, 2-(2-dimethylaminoethylamino)-N-[9-(4-hydroxy-3,5-dimethoxyphenyl)-8-oxo-5,5a,6,8,8a,9-hexahydrofuro[3′,4′:6,7]naphtho[2,3-d][1,3]dioxol-5-yl]acetamide] | 2.81 | 157 [10] % | 6000 nM | solubility [1]: 100 mg/mL (≈ 190 mM)
8 | – | COc1cc(C2c3cc4c(cc3C(NC(=O)CN(C)C)C3COC(=O)C23)OCO4)cc(OC)c1O (stereo not drawn) [Example 12, 2-dlmethylamino-N-[9-(4-hydroxy-3,5-dimethoxyphenyl)-8-oxo-5,5a,6,8,8a,9-hexahydrofuro[3′,4′:6,7]naphtho[2,3-d][1,3]dioxol-5-yl]acetamide] | 2.32 | 157 [2.5] % | – | Solubility in water [1]: 16 mg/mL (≈ 33 mM); IC50 [2]: 200 nM
9 | – | COc1cc(C2c3cc4c(cc3C(NC(=O)CN)C3COC(=O)C23)OCO4)cc(OC)c1O (stereo not drawn) [Example 22, 2-amino-N-[9-(4-hydroxy-3,5-dimethoxyphenyl)-8-oxo-5,5a,6,8,8a,9-hexahydrofuro[3′,4′:6,7]naphtho[2,3-d][1,3]dioxol-5-yl]acetamide] | 3.89 | – | 1000 nM | –
10 | – | COc1cc(C2c3cc4c(cc3C(NC(=O)CNCCCCN)C3COC(=O)C23)OCO4)cc(OC)c1O (stereo not drawn) [Example 25, 2-(4-aminobutylamino)-N-[9-(4-hydroxy-3,5-dimethoxyphenyl)-8-oxo-5,5a,6,8,8a,9-hexahydrofuro[3′,4′:6,7]naphtho[2,3-d][1,3]dioxol-5-yl]acetamide] | 1.09 | 129 [10] % | 80 nM | solubility [1]: 100 mg/mL (≈ 190 mM); B16 Model Optimum T/Cvolume (%) (B16 melanoma): 25% and 25 [20] %; MX-1 Model Optimum T/Cvolume (%) ([3]; Swiss Nude mice, s.c. MX-1, intraperitoneal on day 7, 9, 11, 14, 16 and 18, dose (mg/kg) in brackets): 51% and 51 [10] %
11 | – | COc1cc(C2c3cc4c(cc3C(NC(=O)CNCCCNCCCCNCCCN)C3COC(=O)C23)OCO4)cc(OC)c1O (stereo not drawn) [Example 27, 2-{3-[4-(3-aminopropylamino)butylamino]propylamino}-N-[9-(4-hydroxy-3,5-dimethoxyphenyl)-8-oxo-5,5a,6,8,8a,9-hexahydrofuro[3′,4′:6,7]naphtho[2,3-d][1,3]dioxol-5-yl]acetamide] | 1.22 | 129 [7.5] % | 200 nM | solubility [1]: 50 mg/mL (≈ 77.9 mM); effect on the tumour (in words) ([3]; MX-1, treatment of 2.5 mg/kg): complete eradication of the tumour
12 | – | CCC1=C[C@@H]2CN(C1)Cc1c([nH]c3ccccc13)[C@@](C(=O)OC)(c1cc3c(cc1OC)N(C)[C@H]1[C@@](O)(C(=O)OC)[C@H](OC(C)=O)[C@]4(CC)C=CCN5CC[C@]31[C@@H]54)C2 [Vinorelbine, reference compound] | 0 | – | 3.7 nM | –

Row | Compound | melting point | TM (mean Tail Moment with respect to the TM of etoposide, taken to be unity) (DNA in A549 cells) | P388 Model Optimum T/Csurvival (%) (P388 murine leukaemia) | IC50 ([2]; Homo sapiens) | further results
13 | COc1cc(C2c3cc4c(cc3C(NC(=O)CN)C3COC(=O)C23)OCO4)cc(OC)c1O (stereo not drawn) (as salt: hydrochloride) [Example 22, 2-amino-N-[9-(4-hydroxy-3,5-dimethoxyphenyl)-8-oxo-5,5a,6,8,8a,9-hexahydrofuro[3′,4′:6,7]naphtho[2,3-d][1,3]dioxol-5-yl]acetamide] | 236 °C | – | – | – | –
